Laboratory results as given in patent US8748435B2, “Pyrazolo pyrimidine derivatives” (Novartis AG, priority 2011, dated 2014).
pIC50: −log10 of the molar value. Where a name gives a salt, the structure may show the parent alone.

Legend:
[1] = biological target: T1, human GPR4 (Homo sapiens (Human), UniProt P46093); experiment: Human GPR4 binding assay ([3H]4 radioligand, membranes of 300.19 cells expressing human GPR4); settings: radioligand [3H]4 (example 39), membranes of 300.19 cells expressing human GPR4
Experimental: a) Human GPR4 Binding Assay
(§1) Cells were grown in T175 flasks to a density of about 1×10^6 cells/mL in growth medium. The cells were harvested by centrifugation (3000 rpm for 30 minutes at 4° C.) and the pellet resuspended in ice cold buffer A (20 mM HEPES pH 7.8, 10 mM EDTA, 100 mM NaCl, 1 tab/40 mL protease inhibitor complete). […] The homogenate was centrifuged at 18000 rpm for 50 min at 4° C. and the membrane protein pellet resuspended in cold buffer A using the Polytron (2×20 seconds). The protein concentration is determined using the Bio Rad Protein Assay and human IgG as standard. The volume of the membrane protein suspension is adjusted to a final concentration of about 2 mg protein/mL. The suspension is then once again homogenized (Polytron) on ice at 25000 rpm for 20 seconds before being aliquoted and stored at −80° C.
(§2) Radio Ligand Binding Assay: Serial dilutions of compounds (stock in 10 mM DMSO) are prepared by first diluting the compounds in DMSO followed by a 1:50 dilution into assay buffer (10 mM HEPES, pH 8.0, 100 mM NaCl, 5 mM MgCl2, 1 mM CaCl2, 0.5% fatty acid-free BSA, 0.05% Tween-20). […] The desired amount of membranes (20 μg/well) is diluted with assay buffer. […] 100 μL of the membrane-suspension is added and the plate stirred for 60 minutes. […] The filter plate is washed 5 times with ice-cold wash buffer, dried and sealed at the bottom. Then 20 μL of Microscint 40 is added into each well and the top of the plate is sealed. Finally the plate is counted for 2 min/well in a TopCount NXT instrument (Packard Instruments). The data are analyzed using the GraphPad Prism™ software.

[2] = biological target: T1, human GPR4; experiment: Human GPR4 binding assay with additional human serum albumin (4% HSA); settings: binding assay with 4% HSA
Experimental: as §1, §2
In a similar manner, a binding assay with additional human serum albumin (4% HSA) has been established.

[3] = biological target: T1, human GPR4; experiment: Cell-based assay for human GPR4 activity (pH-induced cAMP formation, HTRF, HeLa cells); settings: HeLa cells stably expressing human GPR4, pH-induced cAMP
Experimental: b) Cell-Based Assay for Human GPR4 Activity
(§3) HeLa cells stably expressing human GPR4 were established by transfecting the cells with a construct containing the human GPR4 coding sequence. The cells were grown in Dulbecco's Modified Eagle Medium (DMEM)/HAM's tissue culture medium F12 (HAM's F12) supplemented with 10% fetal calf serum (FCS), 100 u/ml penicillin, 100 μg/ml streptomycin and 400 μg/ml G418 and 10 mM Hepes pH 8.0. pH-induced formation of cAMP was determined using the homogeneous time resolved fluorescence (HTRF) technology as provided by CisBio Inc. The cells were seeded in 384-well plates and cultured for 24 hours at 37° C., 5% CO2 before performing the assay. Medium was removed and 10 μl buffer A (Hepes buffered saline (HBS), 10 mM Hepes, pH 8, 2 mM 3-Isobutyl-1-methylxanthin (IBMX)) was added. For compound testing, buffer A with 2× concentrated compounds was used. Cells were incubated for 15 min at room temperature. 10 μl buffer B (HBS, 30 mM Hepes, specific pH) was added to reach the appropriate final pH for stimulation (see below) and incubation was continued for 15 min at room temperature. […] HBS: 130 mM NaCl, 0.9 mM NaH2 PO4, 5.4 mM KCl, 0.8 mM MgSO4, CaCl2 1.8 mM, 25 mM glucose, 10-30 mM Hepes. Adjustment of HBS buffers:
(§4) Compounds were diluted from fresh stock solutions at 10 mM in DMSO to 2 mM and then used for serial dilutions in DMSO.

[4] = biological target: mouse GPR4 (Mus musculus (Mouse), UniProt Q8BUD0); experiment: Mouse GPR4 cAMP assay; type: cell-based
Experimental: as §3, §4
(§5) In a similar manner, assays for the mouse (m) and rat (r) GPR4 receptors have been established.

[5] = biological target: rat GPR4 (Rattus norvegicus (Rat), UniProt Q4KLH9); experiment: Rat GPR4 cAMP assay; type: cell-based; settings: read-out: r cAMP IC50
Experimental: as §3, §4, §5

[6] = biological target: Human H3 (Homo sapiens (Human), UniProt Q9Y5N1); experiment: Human H3 binding assay (SPA, [3H]-R-alpha-Methylhistamine); settings: 3 nM [3H]-R-alpha-Methylhistamine
Experimental: c) Human H3 Binding Assay
The Scintillation Proximity Binding Assay (SPA) assay was performed in a final volume of 50 μL per well in a 384-well polystyrene plate.
The final concentration of the radioligand was 3 nM. • 20 μL of a beads (PVT-WGA type A) and membranes mixed suspension in assay buffer, in order to get a final concentration of 10 μg/well of membranes and 200 μg/well of beads. As an example, 1471 μL membranes (Conc.: 5.1 mg/mL) and 1500 μL of bead suspension (Conc.: 100 mg/mL) are diluted to a final volume of 15 mL of assay buffer.
The plates were sealed and shaken at room temperature, then allowed to stand at room temperature for at least 1 hour. The plates were counted using a Perkin Elmer TopCount reader, each well being counted for 1 minute.

[7] = tested on: antigen-induced arthritis (knee swelling); experiment: Rat antigen-induced arthritis model; type: in vivo; settings: oral gavage, AUC of R/L knee swelling ratio vs control
Experimental: e) GPR4 Activity in Rat Antigen-induced Arthritis Model Female Lewis rats were sensitised intradermally on the back at two sites to methylated bovine serum albumin (mBSA) homogenised 1:1 with complete Freund's adjuvant on days −21 and −14 (0.1 ml containing 1 mg/ml mBSA). On day 0, the right knee received […] of 10 mg/ml mBSA in 5% glucose solution (antigen injected knee), while the left knee received […] of 5% glucose solution alone (vehicle injected knee). The diameters of the left and right knees were then measured using calipers immediately after the intra-articular injections and again on days 2, 4 and 7. The compounds of the invention were administered twice daily by oral gavage; vehicle (saline) at 5 ml/kg, and dexamethasone at 0.3 mg/kg was given as a control. Right knee swelling was calculated as a ratio of left knee swelling, and the R/L knee swelling ratio plotted against time to give Area Under the Curve (AUC) graphs for control and treatment groups. The percentage inhibition of the individual treatment group AUCs were calculated vs the control group AUC (0% inhibition).

[8] = tested on: VEGF-induced angiogenesis; experiment: GPR4 activity in VEGF-induced angiogenesis in mice (growth factor implant model); type: in vivo; settings: po 30 mg/kg bid, day 4 after chamber implantation
Experimental: d) GPR4 Activity in VEGF-Induced Angiogenesis in Mice
The functional activity of GPR4 was determined in the angiogenesis growth factor implant model. Porous tissue chambers made of perfluoro-alkoxy-Teflon were filled with 0.8% agar and 20 U/ml heparin supplemented with or without 8 μg/ml recombinant human VEGF. The solutions were maintained at 39° C. prior to the filling procedure. Mice were anesthetized using 3% isoflurane inhalation. For subcutaneous implantation, a small skin incision was made at the base of the tail to allow the insertion of an implant trocar. The chamber was implanted under aseptic conditions through the small incision onto the back of the animal. The skin incision was closed by wound clips. The compounds were applied po at 30 mg/kg bid starting at the day of the chamber implantation.
On the 4th day after implantation, animals were sacrificed using CO2. Chambers were excised and the vascularized fibrous tissue formed around each implant carefully removed and weighed and expressed as Δ tissue weight % [((compound/VEGF)−(no compound/no VEGF))/((no compound/VEGF)−no compound/no VEGF))×100]. Body weight was used to monitor the general condition of the mice.

[9] = tested on: CFA-induced hyperalgesia; experiment: Established rat hyperalgesia model (CFA); type: in vivo; settings: gavage
Experimental: f) Established Rat Hyperalgesia Model
Naïve withdrawal thresholds of both hind paws were determined by using an increasing pressure stimulus placed onto the dorsal surface of each paw using an analgesymeter. Delayed inflammatory pain was then induced by intra-plantar injection of 25 μl of complete Freund's adjuvant (CFA) into one hindpaw with the contralateral paw acting as the control. […] One hour later, paw withdrawal thresholds were re-measured on both the ipsilateral (CFA-injected) and contralateral (uninjected) paw; measurements were repeated at 3 hrs and 6 hrs post dosing. The reversal of hyperalgesia was calculated using the following formula: Reversal (%)=100×(postdose ipsilateral threshold−predose ipsilateral threshold) (naïve ipsilateral threshold−predose ipsilateral threshold).

mouse GPR4, sequence (Q8BUD0 whole entry): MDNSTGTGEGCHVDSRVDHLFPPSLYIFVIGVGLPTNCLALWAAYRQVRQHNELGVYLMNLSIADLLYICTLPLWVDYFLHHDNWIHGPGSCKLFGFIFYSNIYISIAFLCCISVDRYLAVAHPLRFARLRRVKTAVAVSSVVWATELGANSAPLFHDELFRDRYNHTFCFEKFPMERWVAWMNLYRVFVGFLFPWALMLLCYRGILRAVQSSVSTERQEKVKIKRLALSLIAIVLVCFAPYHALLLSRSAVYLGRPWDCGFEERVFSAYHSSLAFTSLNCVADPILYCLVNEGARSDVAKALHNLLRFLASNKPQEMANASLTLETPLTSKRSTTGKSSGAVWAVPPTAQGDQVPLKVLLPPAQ
Human H3, sequence (Q9Y5N1 whole entry): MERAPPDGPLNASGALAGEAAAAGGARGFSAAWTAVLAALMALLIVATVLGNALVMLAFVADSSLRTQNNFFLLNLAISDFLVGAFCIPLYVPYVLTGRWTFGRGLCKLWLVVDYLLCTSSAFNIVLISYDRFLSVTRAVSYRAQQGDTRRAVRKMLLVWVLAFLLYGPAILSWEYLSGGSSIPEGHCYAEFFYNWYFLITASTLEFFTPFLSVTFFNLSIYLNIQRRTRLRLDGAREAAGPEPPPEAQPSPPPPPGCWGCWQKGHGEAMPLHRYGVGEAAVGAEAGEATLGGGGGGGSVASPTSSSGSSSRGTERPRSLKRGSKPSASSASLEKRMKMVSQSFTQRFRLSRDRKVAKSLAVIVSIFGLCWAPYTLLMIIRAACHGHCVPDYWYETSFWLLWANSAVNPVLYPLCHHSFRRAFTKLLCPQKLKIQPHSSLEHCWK
rat GPR4, sequence (Q4KLH9 whole entry): as the sequence (Q8BUD0 whole entry) above, with G8W, H51R, S339T counted along it
T1 sequence (P46093 whole entry): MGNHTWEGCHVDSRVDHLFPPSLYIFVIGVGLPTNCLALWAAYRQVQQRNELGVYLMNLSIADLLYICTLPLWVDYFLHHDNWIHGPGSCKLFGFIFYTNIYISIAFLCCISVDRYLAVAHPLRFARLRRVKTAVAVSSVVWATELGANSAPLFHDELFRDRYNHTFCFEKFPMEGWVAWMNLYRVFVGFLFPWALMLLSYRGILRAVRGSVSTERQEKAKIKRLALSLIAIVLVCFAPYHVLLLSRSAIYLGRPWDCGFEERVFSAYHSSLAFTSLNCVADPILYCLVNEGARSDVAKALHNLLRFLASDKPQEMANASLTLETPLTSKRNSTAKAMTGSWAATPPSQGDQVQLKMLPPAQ

| SMILES | pIC50 [1] | pIC50 [2] | pIC50 [3] | pIC50 [4] | pIC50 [5] | pIC50 [6] | Inhibition of swelling ([7]; 90 mg/kg bid) | Δ tissue weight [8] | Inhibition of swelling ([7]; 30 mg/kg bid) | % reversal of hyperalgesia ([9]; 3 mg/kg, 1 h) | % reversal of hyperalgesia ([9]; 3 mg/kg, 3 h) | % reversal of hyperalgesia ([9]; 3 mg/kg, 6 h) | % reversal of hyperalgesia ([9]; 10 mg/kg, 1 h) | % reversal of hyperalgesia ([9]; 10 mg/kg, 3 h) | % reversal of hyperalgesia ([9]; 10 mg/kg, 6 h) | % reversal of hyperalgesia ([9]; 30 mg/kg, 1 h) | % reversal of hyperalgesia ([9]; 30 mg/kg, 3 h) | % reversal of hyperalgesia ([9]; 30 mg/kg, 6 h) | Inhibition of swelling ([7]; 60 mg/kg bid) |
| --- | --- | --- | --- | --- | --- | --- | --- | --- | --- | --- | --- | --- | --- | --- | --- | --- | --- | --- | --- |
| CCc1nn2c(C)cc(C)nc2c1Cc1ccc(/C=C/CN2CCN[C@H](CO)C2)cc1 [Example 8, ((S)-4-{(E)-3-[4-(2-Ethyl-5,7-dimethyl-pyrazolo[1,5-a]pyrimidin-3-ylmethyl)-phenyl]-allyl}-piperazin-2-yl)-methanol dihydrochloride] | 7.55 | 7.29 | 7.47 | 6.42 | 6.17 | < 4.52 | 30% | – | – | – | – | – | – | – | – | – | – | – | – |
| CCc1nn2c(C)cc(C)nc2c1Cc1ccc(/C=C/CN2CCN[C@@H](C)C2)cc1 [Example 9, 2-Ethyl-5,7-dimethyl-3-{4-[(E)-3-((S)-3-methyl-piperazin-1-yl)-propenyl]-benzyl}-pyrazolo[1,5-a]pyrimidine] | 7.72 | 8.22 | 7.23 | 6.05 | 5.84 | 4.74 | – | 44% | – | – | – | – | – | – | – | – | – | – | – |
| CCc1nn2c(C)cc(C)nc2c1Cc1ccc(/C=C/CN2CCN(C[C@@H](O)CO)CC2)cc1.Cl.Cl [Example 17, (R)-3-(4-{(E)-3-[4-(2-Ethyl-5,7-dimethyl-pyrazolo[1,5-a]pyrimidin-3-ylmethyl)-phenyl]-allyl}-piperazin-1-yl)-propane-1,2-diol dihydrochloride] | – | – | – | – | – | – | – | – | 36% | 28% | 18% | 3% | 36% | 29% | 7% | 55% | 32% | 15% | – |
| CCc1nn2c(C)cc(C)nc2c1Cc1ccc(-n2cc(CN3CCNCC3)cn2)cc1 [Example 31, 2-Ethyl-5,7-dimethyl-3-[4-(4-piperazin-1-ylmethyl-pyrazol-1-yl)-benzyl]-pyrazolo[1,5-a]pyrimidine] | 7.37 | 7.21 | 7.28 | 6.29 | 5.88 | < 4.52 | – | – | 24% | – | – | – | – | – | – | – | – | – | 38% |
| CCc1nn2c(C)cc(C)nc2c1Cc1ccc(-c2nnc(C3CCNCC3)o2)cc1 [Example 35, 2-Ethyl-5,7-dimethyl-3-[4-(5-piperidin-4-yl-[,3,4]oxadiazol-2-yl)-benzyl]-pyrazolo[1,5-a]pyrimidine] | – | – | – | – | – | – | 40% | 49% | 26% | 36% | 25% | 5% | 43% | 36% | 15% | 62% | 47% | 25% | 34% |

Now from value to molecule, other results behind:

| pIC50 [1] | pIC50 [2] | pIC50 [3] | pIC50 [4] | pIC50 [5] | pIC50 [6] | SMILES | Inhibition of swelling ([7]; 90 mg/kg bid) | Δ tissue weight [8] | Inhibition of swelling ([7]; 30 mg/kg bid) | % reversal of hyperalgesia ([9]; 3 mg/kg, 1 h) | % reversal of hyperalgesia ([9]; 3 mg/kg, 3 h) | % reversal of hyperalgesia ([9]; 3 mg/kg, 6 h) | % reversal of hyperalgesia ([9]; 10 mg/kg, 1 h) | % reversal of hyperalgesia ([9]; 10 mg/kg, 3 h) | % reversal of hyperalgesia ([9]; 10 mg/kg, 6 h) | % reversal of hyperalgesia ([9]; 30 mg/kg, 1 h) | % reversal of hyperalgesia ([9]; 30 mg/kg, 3 h) | % reversal of hyperalgesia ([9]; 30 mg/kg, 6 h) | Inhibition of swelling ([7]; 60 mg/kg bid) |
| --- | --- | --- | --- | --- | --- | --- | --- | --- | --- | --- | --- | --- | --- | --- | --- | --- | --- | --- | --- |
| – | 7.72 | 7.68 | 6.58 | 5.85 | < 4.52 | CCc1nn2c(C)cc(C)nc2c1Cc1ccc(OC[C@H]2CC[C@@H](N)CC2)cc1 [Example 23, 4-[4-(2-Ethyl-5,7-dimethyl-pyrazolo[1,5-a]pyrimidin-3-ylmethyl)-phenoxymethyl]-cyclohexylamine] | – | – | 24% | – | – | – | – | – | – | – | – | – | – |
| 6.93 | 6.74 | 7.31 | 6.16 | 5.64 | 4.70 | CCc1nn2c(C)cc(C)nc2c1Cc1ccc(-n2cc(CN3CC(O)C3)cn2)cc1 [Example 28, 1-{1-[4-(2-Ethyl-5,7-dimethyl-pyrazolo[1,5-a]pyrimidin-3-ylmethyl)-phenyl]-1H-pyrazol-4-ylmethyl}-azetidin-3-ol] | 25% | – | – | – | – | – | – | – | – | – | – | – | – |
| 7.82 | 7.54 | 7.35 | 6.74 | 6.09 | < 4.52 | CCc1nn2c(C)cc(C)nc2c1Cc1ccc(-c2nnc(C3CCN(C(=O)[C@H](CO)NC)CC3)o2)cc1 [Example 38, (S)-1-(4-{5-[4-(2-Ethyl-5,7-dimethyl-pyrazolo[1,5-a]pyrimidin-3-ylmethyl)-phenyl]-[1,3,4]oxadiazol-2-yl}-piperidin-1-yl)-3-hydroxy-2-methylamino-propan-1-one hydrochloride] | – | – | – | – | – | – | – | – | – | – | – | – | – |
